Reference: patent US20220305178A1, “CANCER TREATMENT BY IN VITRO AMINO ACID DEPRIVATION” (YUANHENG BIOMEDICAL CO., LTD., priority 2021, published 2022)

Assays:
[1] = Modified peritoneal dialysis with artificial kidneys of different effective membrane areas (Example 4); assay type: biochemical; settings: for Arg (%) of the peritoneal fluid / Arg (μM) of the peritoneal fluid: non-target amino acid
Experimental: (§1) RPMI 1640 Medium was ten times diluted to obtain 1 L of RPMI 1640 diluent with Dianeal PD-2 (Peritoneal Dialysis Solution) and to serve as a peritoneal fluid for the control group 2. 1 L and 2 L of the same RPMI 1640 diluent was prepared for the Experimental group 2 and Experimental group 3, respectively.
(§2) The flow rate or circulation speed of the dialysate was 250 ml/min. Before the peritoneal fluid (RPMI 1640 diluent) entered the dialysis machine, RPMI 1640 diluent was also used to clean the circulation pipeline of the dialysis machine, to achieve the required equilibrium of the artificial kidney, and to get rid of all bubbles in the artificial kidney. Besides, the artificial kidneys of the control group 2 and the experimental group 2 were NV-15U with the effective membrane area of 1.5 m^2; and the artificial kidney of the experimental group 3 was NV-21U with the effective membrane area of 2.1 m^2.
(§3) The dialysate is DIANEAL PD-2 Peritoneal Dialysis Solution with 1.5% Dextrose (Baxter). The target amino acid is Asparagine (Asn), and the concentration of Asparaginase in the dialysate is 1 K.U./ml in the Experimental groups 2 & 3. No Asparaginase was added in the control group 2.
(§4) The dialysis temperature was set to be 37° C. The peritoneal fluid (RPMI 1640 diluent) was first pumped into slot A for temporary storage and then entered the artificial kidney. After peritoneal fluid (RPMI 1640 diluent) left the artificial kidney, peritoneal fluid (RPMI 1640 diluent) further entered slot B for temporary storage, and then left the dialysis machine, e.g. the peritoneal fluid (RPMI 1640 diluent) was pumped back to the peritoneal cavity of the patient. The concentrations of amino acids in the peritoneal fluid before and after dialysis were studied by using Amino Acid Analysis Systems (Waters UPLC® Amino Acid Analysis (AAA) Solution) and the result was shown in Table 3 to Table 5.
Example 4 was carried out with the method the same as Example 3 except that the artificial kidneys with different effective membrane areas were adopted. The concentrations of amino acids in the peritoneal fluid before and after dialysis were studied and the result was shown in Table 6.

[2] = Modified hemodialysis of simulated blood with Asparaginase in the dialysate, amino acids by UPLC; assay type: biochemical, pig; settings: for concentration of Asn of the simulated blood / concentration of Arg of the simulated blood / concentration of Gln of the simulated blood / concentration of Met of the simulated blood / concentration of Ser of the simulated blood: Experimental group 1, Asparaginase 1 K.U./ml in dialysate; for concentration of Arg of the simulated blood / concentration of Gln of the simulated blood / concentration of Met of the simulated blood / concentration of Ser of the simulated blood: non-target amino acid
Experimental: 900 ml of pig's blood and 100 ml of Gibco Roswell Park Memorial Institute (RPMI) 1640 Medium (RPMI 1640 Medium) were mixed to obtain a diluted pig's blood. The diluted pig's blood was further added with 1.8 mg/ml EDTA-K^2+, 0.05% sodium azide; and 132 μl of Heparin with the concentration of 5000 U/ml to obtain a simulated blood, wherein the concentration of EDTA-K^2+ of the simulated blood was […].
The dialysis machine is Toray TR-321. The dialysate for extracorporeal circulation was triple the amount of the simulated blood and was 3000 ml, and the flow rate of dialysate was 500 ml/min. Before the simulated blood entered the dialysis machine, 1X PBS was used to clean the circulation pipeline of the dialysis machine, to achieve the required balance of the artificial kidney (Polyflux 17L), and to get rid of all bubbles in the artificial kidney, and the circulation speed was 250 ml/min. Besides, the effective membrane area of the artificial kidney is 1.7 m^2.
The dialysate consisted of Buffer A (hemodialysis concentrate No. 16, purchased from Taiwan Biotech Co., LTD), Buffer B (Sodium Bicarbonate Concentrate 8.4%, purchased from Fressenius Medical Care Ag, 61348 Bad Homburg, Germany) and R.O. water, wherein the volume ratio of Buffer A, Buffer B and R.O. water is 1:1.225:32.775.
The target amino acid is Asparagine (Asn), and the rest are non-target amino acids. The 3000 ml dialysate was added with 3 ml of Asparaginase with the concentration of 1000 K.U./ml (LEUNASE®) in the Experimental group 1, so the concentration of Asparaginase in the dialysate is 1 K.U./ml. No Asparaginase was added in the Control group 1.
The conductivity of the dialysate was adjusted to about 14 mS/cm. The dialysis temperature was set to be 37° C. When the pressure of the circulation pipeline, the temperature and the conductivity of the dialysate reached the desirable value and were stable, a green light signaled to indicate that hemodialysis was ready. The simulated blood was pumped into the circulation pipeline and entered the artificial kidney. Besides, the simulated blood was further added with Heparin with the concentration of 5000 U/ml at the flow rate of 4.4 ml/hour before the simulated blood entered the artificial kidney. The concentrations of amino acids in the simulated blood before and after dialysis were detected by ultra performance liquid chromatography (UPLC) and the results were shown in Table 1 and Table 2.

[3] = Modified peritoneal dialysis of peritoneal fluid (RPMI 1640 diluent) with Asparaginase in the dialysate (Example 3); assay type: biochemical
Experimental: as §1, §2, §3, §4

[4] = dialyzer BG-1.6U (1.6 m^2), dialysis time 0 min
[5] = dialyzer BG-1.6U (1.6 m^2), dialysis time 3 min
[6] = dialyzer BG-1.6U (1.6 m^2), dialysis time 5 min
[7] = dialyzer BG-1.6U (1.6 m^2), dialysis time 10 min
[8] = dialyzer BG-1.6U (1.6 m^2), dialysis time 20 min
[9] = dialyzer BG-1.8U (1.8 m^2), dialysis time 0 min
[10] = dialyzer BG-1.8U (1.8 m^2), dialysis time 3 min
[11] = dialyzer BG-1.8U (1.8 m^2), dialysis time 5 min
[12] = dialyzer BG-1.8U (1.8 m^2), dialysis time 10 min
[13] = dialyzer BG-1.8U (1.8 m^2), dialysis time 20 min
[14] = dialyzer polyflux-140H (1.4 m^2), dialysis time 0 min
[15] = dialyzer polyflux-140H (1.4 m^2), dialysis time 3 min
[16] = dialyzer polyflux-140H (1.4 m^2), dialysis time 5 min
[17] = dialyzer polyflux-140H (1.4 m^2), dialysis time 10 min
[18] = dialyzer polyflux-140H (1.4 m^2), dialysis time 20 min

concentration of Asn of the simulated blood ([2]; Polyflux 17L 1.7 m^2, dialysis time 0 min): 41.8 µM | concentration of Asn of the simulated blood ([2]; Polyflux 17L 1.7 m^2, dialysis time 3 min): 32.3 µM | concentration of Asn of the simulated blood ([2]; Polyflux 17L 1.7 m^2, dialysis time 5 min): 24.2 µM | concentration of Arg of the simulated blood ([2]; dialysis time 0 min): 212.4 µM | concentration of Gln of the simulated blood ([2]; dialysis time 0 min): 381.8 µM | concentration of Met of the simulated blood ([2]; dialysis time 0 min): 38.5 µM | concentration of Ser of the simulated blood ([2]; dialysis time 0 min): 159.8 µM | concentration of Arg of the simulated blood ([2]; dialysis time 3 min): 83.0 µM | concentration of Gln of the simulated blood ([2]; dialysis time 3 min): 147.5 µM | concentration of Met of the simulated blood ([2]; dialysis time 3 min): 16.0 µM | concentration of Ser of the simulated blood ([2]; dialysis time 3 min): 67.7 µM | concentration of Arg of the simulated blood ([2]; dialysis time 5 min): 74.6 µM | concentration of Gln of the simulated blood ([2]; dialysis time 5 min): 131.5 µM | concentration of Met of the simulated blood ([2]; dialysis time 5 min): 14.4 µM | concentration of Ser of the simulated blood ([2]; dialysis time 5 min): 63.2 µM | concentration of Arg of the simulated blood ([2]; dialysis time 10 min): 16.9 µM | concentration of Gln of the simulated blood ([2]; dialysis time 10 min): 24.2 µM | concentration of Met of the simulated blood ([2]; dialysis time 10 min): 3.7 µM | concentration of Ser of the simulated blood ([2]; dialysis time 10 min): 17.5 µM | concentration of Arg of the simulated blood ([2]; dialysis time 20 min): 14.7 µM | concentration of Gln of the simulated blood ([2]; dialysis time 20 min): 18.2 µM | concentration of Met of the simulated blood ([2]; dialysis time 20 min): 3.8 µM | concentration of Ser of the simulated blood ([2]; dialysis time 20 min): 20.0 µM | concentration of Arg of the simulated blood ([2]; dialysis time 30 min): 14.3 µM | concentration of Gln of the simulated blood ([2]; dialysis time 30 min): 18.3 µM | concentration of Met of the simulated blood ([2]; dialysis time 30 min): 3.5 µM | concentration of Ser of the simulated blood ([2]; dialysis time 30 min): 17.8 µM | dialysis time within which Asparagine (Asn) is undetectable ([2]; Experimental group 1, simulated blood, LOD of Asparagine 5 μM): ≤ 10 min | concentration of Asn of the peritoneal fluid ([3]; experimental group 2, Asparaginase 1 K.U./ml in dialysate, NV-15U 1.5 m^2, dialysis time 0 min): 27.284 µM | concentration of Asn of the peritoneal fluid ([3]; experimental group 2, Asparaginase 1 K.U./ml in dialysate, NV-15U 1.5 m^2, dialysis time 3 min): 23.254 µM | concentration of Asn of the peritoneal fluid ([3]; experimental group 2, Asparaginase 1 K.U./ml in dialysate, NV-15U 1.5 m^2, dialysis time 5 min): 9.088 µM | concentration of Arg of the peritoneal fluid ([3]; experimental group 2, Asparaginase 1 K.U./ml in dialysate, NV-15U 1.5 m^2, non-target amino acid, dialysis time 0 min): 102.6 µM | concentration of Arg of the peritoneal fluid ([3]; experimental group 2, Asparaginase 1 K.U./ml in dialysate, NV-15U 1.5 m^2, non-target amino acid, dialysis time 3 min): 90.0 µM | concentration of Arg of the peritoneal fluid ([3]; experimental group 2, Asparaginase 1 K.U./ml in dialysate, NV-15U 1.5 m^2, non-target amino acid, dialysis time 5 min): 70.5 µM | dialysis time within which Arginine (Arg) is lower to 50% of the original concentration ([3]; experimental group 2, NV-15U 1.5 m^2): ≤ 10 min | concentration of Asparagine (Asn) relative to original ([3]; experimental group 2, within 5 mins of dialysis): less than 50% | concentration of Asn of the peritoneal fluid ([3]; experimental group 3, Asparaginase 1 K.U./ml in dialysate, NV-21U 2.1 m^2, dialysis time 0 min): 30.674 µM | concentration of Arg of the peritoneal fluid ([3]; experimental group 3, Asparaginase 1 K.U./ml in dialysate, NV-21U 2.1 m^2, non-target amino acid, dialysis time 0 min): 83.86 µM | concentration of Arg of the peritoneal fluid ([3]; experimental group 3, Asparaginase 1 K.U./ml in dialysate, NV-21U 2.1 m^2, non-target amino acid, dialysis time 3 min): 70.12 µM | concentration of Arg of the peritoneal fluid ([3]; experimental group 3, Asparaginase 1 K.U./ml in dialysate, NV-21U 2.1 m^2, non-target amino acid, dialysis time 5 min): 37.31 µM | concentration of Arg of the peritoneal fluid ([3]; experimental group 3, Asparaginase 1 K.U./ml in dialysate, NV-21U 2.1 m^2, non-target amino acid, dialysis time 10 min): 19.99 µM | dialysis time within which Arginine (Arg) is lower to 50% of the original concentration ([3]; experimental group 3, NV-21U 2.1 m^2): ≤ 5 min | dialysis time within which Asparagine (Asn) is undetectable ([3]; experimental group 3, NV-21U 2.1 m^2, peritoneal fluid, LOD of Asparagine 5 μM): ≤ 3 min
Substance: Asparaginase
concentration of non-target amino acid maintained ([1]; Example 4, artificial kidneys 1.4 to 1.8 m^2): about 50% | Asn (%) of the peritoneal fluid [1, 4]: 100% | Asn (μM) of the peritoneal fluid [1, 4]: 45.5 µM | Asn (%) of the peritoneal fluid [1, 5]: 73.90% | Asn (μM) of the peritoneal fluid [1, 5]: 33.6 µM | Arg (%) of the peritoneal fluid [1, 4]: 100% | Arg (μM) of the peritoneal fluid [1, 4]: 95.3 µM | Arg (%) of the peritoneal fluid [1, 5]: 86.3% | Arg (μM) of the peritoneal fluid [1, 5]: 82.2 µM | Arg (%) of the peritoneal fluid [1, 6]: 74.8% | Arg (μM) of the peritoneal fluid [1, 6]: 71.3 µM | Arg (%) of the peritoneal fluid [1, 7]: 65.8% | Arg (μM) of the peritoneal fluid [1, 7]: 62.7 µM | Arg (%) of the peritoneal fluid [1, 8]: 49.7% | Arg (μM) of the peritoneal fluid [1, 8]: 47.4 µM | Asn (%) of the peritoneal fluid [1, 9]: 100% | Asn (μM) of the peritoneal fluid [1, 9]: 36.7 µM | Arg (%) of the peritoneal fluid [1, 9]: 100% | Arg (μM) of the peritoneal fluid [1, 9]: 89.0 µM | Arg (%) of the peritoneal fluid [1, 10]: 75.1% | Arg (μM) of the peritoneal fluid [1, 10]: 66.8 µM | Arg (%) of the peritoneal fluid [1, 11]: 76.5% | Arg (μM) of the peritoneal fluid [1, 11]: 68.0 µM | Arg (%) of the peritoneal fluid [1, 12]: 61.5% | Arg (μM) of the peritoneal fluid [1, 12]: 54.7 µM | Arg (%) of the peritoneal fluid [1, 13]: 61.2% | Arg (μM) of the peritoneal fluid [1, 13]: 54.4 µM | Asn (%) of the peritoneal fluid [1, 14]: 100% | Asn (μM) of the peritoneal fluid [1, 14]: 36.9 µM | Asn (%) of the peritoneal fluid [1, 15]: 85.8% | Asn (μM) of the peritoneal fluid [1, 15]: 31.6 µM | Asn (%) of the peritoneal fluid [1, 16]: 62.3% | Asn (μM) of the peritoneal fluid [1, 16]: 23.0 µM | Arg (%) of the peritoneal fluid [1, 14]: 100% | Arg (μM) of the peritoneal fluid [1, 14]: 93.7 µM | Arg (%) of the peritoneal fluid [1, 15]: 93.6% | Arg (μM) of the peritoneal fluid [1, 15]: 87.6 µM | Arg (%) of the peritoneal fluid [1, 16]: 84.8% | Arg (μM) of the peritoneal fluid [1, 16]: 79.4 µM | Arg (%) of the peritoneal fluid [1, 17]: 71.4% | Arg (μM) of the peritoneal fluid [1, 17]: 66.9 µM | Arg (%) of the peritoneal fluid [1, 18]: 57.9% | Arg (μM) of the peritoneal fluid [1, 18]: 54.2 µM
